Key:
[1] = Rate of dissolution in H2O at 25° C. of rebaudioside A polymorph and amorphous forms; type: physicochemical
From the text: The purification of rebaudioside A by crystallization as described above results in the formation of at least three different polymorphs: Form 1: a rebaudioside A hydrate; Form 2: an anhydrous rebaudioside A; and Form 3: a rebaudioside A solvate. In addition to the at least three polymorph forms of rebaudioside A, the purification of rebaudioside A may result in the formation of an amorphous form of rebaudioside A, Form 4. The aqueous organic solution and temperature of the purification process influence the resulting polymorph and amorphous forms in the substantially pure rebaudioside A composition. FIGS. 1-5 are exemplary powder x-ray diffraction (XRPD) scans of the polymorph and amorphous forms of rebaudioside A: Form 1 (hydrate), Form 2 (anhydrate), Form 3A (methanol solvate), Form 3B (ethanol solvate), and Form 4 (amorphous), respectively.

[2] = type: physicochemical
Method: A solution of rebaudioside A (>97% pure by HPLC) was prepared in double distilled water (12.5 gm in 50 mL, 25% concentration) by stirring the mixture at 40° C. for 5 minutes. An amorphous form of rebaudioside A was formed by immediately using the clear solution for spray drying with the Lab-Plant spray drier SD-04 instrument (Lab-Plant Ltd., West Yorkshire, U.K.). The solution was fed through the feed pump into the nozzle atomizer which atomized it into a spray of droplets with the help of a constant flow of nitrogen/air. […] This dry powder (11-12 g, H2O 6.74%) was discharged continuously from the drying chamber and was collected in a bottle.

Rate of dissolution in H2O at 25° C. ([1]; graded Intermediate or High) | solubility in water at room temperature [2] [%] | Rate of dissolution in H2O at 25° C. ([1]; graded Very low) | Substance
High (>30%/5 %/5 minutes |  |  | rebaudioside A [Form 3]
Intermediate (<30%/5 %/5 minutes |  |  | rebaudioside A [Form 2]
High (>35%/5 %/5 minutes | > 35.0 |  | rebaudioside A [Form 4]
 |  | Very low (<0.2%/60 %/60 minutes | rebaudioside A [Form 1]
